Measurements published in patent US9695175B2, “Highly selective c-Met inhibitors as anticancer agents” (Crown Bioscience Inc. (Taiwan), priority 2012, dated 2017).

Key:
[1] = target: c-Met kinase (1038-1346AA) (Homo sapiens (Human), UniProt P08581); experiment: c-Met in vitro kinase assay (Lance Ultra ULight-TK); assay type: biochemical; conditions: c-Met kinase 12.5 nM, ATP 2.5 uM, 30° C.; read-out: c-Met Enzyme IC50
Procedure: c-Met In Vitro Kinase Assay [Method] Use Lance@Ultra Ulight™-TK test kits from PerKinElmer to evaluate the inhibition of c-Met kinase by the compounds [Instrument] ENVISION plate reader of PerKinElmer […] Then ATP (final concentration 2.5 uM) and kinase substrate (final concentration 50 nM) are added. […] After 1 hr, the plate is read at 615 nm and 665 nm. The ratio of […] at 665 nm and 615 nm is calculated and used for the data analysis as follows. This assay has a Minimum Significant Ratio (MSA) of 2-3. [Samples] All exampled compounds and Crizotinib as the positive control [Data Analysis] Background—the ratio of 665 nm/615 nm (no enzyme):0.003285 • Max—the ratio of 665 nm/615 nm (no test compound):0.075356 [formula] [Software] Use CBIS data analysis software to calculate IC50 values

[2] = target: c-Met protein in S114 cells (Homo sapiens (Human), UniProt P08581); experiment: S114 cell-based ELISA, phosphorylation of c-Met protein; conditions: 30 min compound incubation, phospho-c-Met ELISA
c-Met protein in S114 cells, sequence (P08581 25-1390): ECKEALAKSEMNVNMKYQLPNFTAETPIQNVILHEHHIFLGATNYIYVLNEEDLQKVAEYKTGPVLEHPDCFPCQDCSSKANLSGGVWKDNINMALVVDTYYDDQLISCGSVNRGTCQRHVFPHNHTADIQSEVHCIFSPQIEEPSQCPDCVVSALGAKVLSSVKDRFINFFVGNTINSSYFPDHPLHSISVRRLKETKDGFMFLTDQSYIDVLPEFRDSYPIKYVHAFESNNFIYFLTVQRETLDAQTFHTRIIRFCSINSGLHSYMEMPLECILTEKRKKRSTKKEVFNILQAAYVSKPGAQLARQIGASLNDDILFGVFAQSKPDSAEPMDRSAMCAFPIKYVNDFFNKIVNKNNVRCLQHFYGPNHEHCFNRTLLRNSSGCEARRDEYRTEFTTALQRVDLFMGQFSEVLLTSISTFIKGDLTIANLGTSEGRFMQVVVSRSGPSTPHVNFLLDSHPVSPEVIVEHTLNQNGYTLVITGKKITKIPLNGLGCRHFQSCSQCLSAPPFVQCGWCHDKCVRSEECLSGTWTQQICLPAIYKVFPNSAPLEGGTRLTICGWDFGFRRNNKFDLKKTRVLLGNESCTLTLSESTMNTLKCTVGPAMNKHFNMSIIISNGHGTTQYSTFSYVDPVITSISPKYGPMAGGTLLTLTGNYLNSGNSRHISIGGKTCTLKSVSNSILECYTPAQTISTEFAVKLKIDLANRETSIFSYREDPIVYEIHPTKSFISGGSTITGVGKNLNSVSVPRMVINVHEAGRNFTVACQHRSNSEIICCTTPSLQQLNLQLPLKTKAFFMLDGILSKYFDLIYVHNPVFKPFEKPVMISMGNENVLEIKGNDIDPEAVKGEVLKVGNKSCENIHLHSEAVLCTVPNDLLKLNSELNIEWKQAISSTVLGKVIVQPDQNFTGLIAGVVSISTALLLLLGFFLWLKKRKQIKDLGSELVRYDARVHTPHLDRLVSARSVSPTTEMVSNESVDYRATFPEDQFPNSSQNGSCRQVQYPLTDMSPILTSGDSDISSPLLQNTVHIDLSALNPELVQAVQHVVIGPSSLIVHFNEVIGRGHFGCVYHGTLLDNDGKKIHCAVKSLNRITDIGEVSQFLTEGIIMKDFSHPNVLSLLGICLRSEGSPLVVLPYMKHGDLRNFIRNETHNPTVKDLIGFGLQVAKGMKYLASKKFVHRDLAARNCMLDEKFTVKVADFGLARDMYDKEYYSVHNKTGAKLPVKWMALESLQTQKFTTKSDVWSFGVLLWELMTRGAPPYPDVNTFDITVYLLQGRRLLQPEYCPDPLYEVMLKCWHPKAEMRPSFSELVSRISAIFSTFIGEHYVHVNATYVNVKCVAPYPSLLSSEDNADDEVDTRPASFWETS
Procedure: Cell-Based ELISA [Method] Use ELISA to measure the phosphorylation of c-Met protein in […] cells [Instrument] ENVISION plate reader of PerKinElmer […] [Procedure] […] cells are cultured in DMEM medium (containing 10% FBS). When cells reach 80% confluency, they are collected by trypsinization and centrifugation at 800 rpm for 5 min. The cells are re-suspended in DMEM and adjusted to a density of 500,000 cells/mL. A 96-well plate is pretreated with a solution of Firbronectin in PBS (5 μg/mL) at 100 μL per well for 2 hr. The cell suspension is split into the 96-well culture plate at 100 uL per well and incubated (37° C., 5% CO2) overnight. The capture antibody is diluted with 1/2 Tris-ammonium bicarbonate buffer (1:1000) and transferred into a 96-well absorption plate (70 μL per well) at 4° C. overnight. The solution is discarded and the plate is washed with blocking buffer, followed by adding blocking buffer (150 μL per well), and kept at room temperature for 1 hr. The medium in the 96-well culture plate is discarded and the plate is washed with DMEM (without FBS). Then 80 μL of DMEM (without FBS) and 20 μL of test compound solution at various concentrations in DMEM (without FBS) are added. The culture plate is kept in a culture incubator for 30 min (37° C., 5% CO2). The cell culture medium is discarded and the culture plate is washed with PBS, followed by adding lysis buffer (50 μL per well) and incubated at 4° C. for 20 min. The solution in the absorption plate is discarded and the plate is washed with binding buffer. To each well of the absorption plate is added binding buffer (50 μL) and lysate (40 μL) from the above culture plate; then the plate is incubated at room temperature for 2 hours. The culture medium is discarded and the plate is washed twice with binding buffer, followed by adding a solution of 1st antibody (diluted with binding buffer 1:1000, 100 μL per well) and incubated at 37° C. for 1 hr. The solution is discarded and the plate is washed twice with binding buffer. Then a solution of 2nd antibody is added (100 μL per well) and incubated at 37° C. for another hour. The medium is discarded and the plate is washed twice with binding buffer and once with PBS. To each well, 100 μL of A.B.T.S solution is added and incubated at 37° C. for 30 min. Then OD405 is analyzed on an ENVISION plate reader. This assay has a Minimum Significant Ratio (MSA) of 2-3. [Samples] All exemplified compounds and Crizotinib as the positive control [Data Analysis] Background (no cell lysate): 0.084 • Max (no test compound): 0.517 [formula] [Software] Use CBIS data analysis software to calculate IC50 values

c-Met kinase (1038-1346AA), sequence (P08581 1038-1346): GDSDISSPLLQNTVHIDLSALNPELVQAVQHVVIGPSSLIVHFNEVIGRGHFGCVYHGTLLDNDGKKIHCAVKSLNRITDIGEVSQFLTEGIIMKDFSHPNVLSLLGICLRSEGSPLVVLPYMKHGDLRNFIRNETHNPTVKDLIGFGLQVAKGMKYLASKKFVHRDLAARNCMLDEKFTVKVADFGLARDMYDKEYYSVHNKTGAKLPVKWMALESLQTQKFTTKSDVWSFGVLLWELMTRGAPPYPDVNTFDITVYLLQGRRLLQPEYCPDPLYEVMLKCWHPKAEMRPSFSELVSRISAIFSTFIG

Structure (SMILES) | IC50 [1] [nM] | IC50 [2] [nM]
Cn1cc2cc(C(F)(F)C3(Cl)NN=C4C=CC(c5cnn(C6CC6)c5)=CN43)c(F)cc2n1 (stereo not shown) [Example 45] | 274 | 270
Cn1cc2c(F)c(C(F)(F)c3nnc4ccc(-c5ccc(C(=O)NC6CC6)c(F)c5)nn34)ccc2n1 [Example 5] | 45.4 | 23.2
Cc1cncc(-c2ccc3nnc(C(F)(F)c4cc5cn(C)nc5cc4F)n3n2)c1 [Example 32] | 109 | 37.7
Cn1cc2cc(C(F)(F)c3nnc4ncc(-c5cnn(C6CC6)c5)cn34)c(F)cc2n1 [Example 47] | 38 | 22
Cn1cc2c(F)c(C(F)(F)c3nnc4ccc(-c5cncc(Cl)c5)nn34)ccc2n1 [Example 11] |  | 42
Cn1cc2cc(C(F)(F)c3nnc4ccc(-c5cnn(C6CC6)c5)nn34)c(F)cc2n1 [Example 44] | 31.6 | 7.8
COCCn1cc(-c2ccc3nnc(C(F)(F)c4cc5cn(C)nc5cc4F)n3n2)cn1 [Example 40] | 203 | 134
Cn1cc2c(F)c(C(F)(F)c3nnc4ccc(-c5cncc(F)c5)nn34)ccc2n1 [Example 10] |  | 142
CC(C)n1cc(-c2ccc3nnc(C(F)(F)c4cc5cn(C)nc5cc4F)n3n2)cn1 [Example 38] | 82.9 | 44.1
Cn1cc2cc(C(F)(F)c3nnc4ccc(-c5cncc(F)c5)nn34)c(F)cc2n1 [Example 33] | 242 | 210
Cn1cc2c(F)c(C(F)(F)c3nnc4ccc(-c5ccc(NC(=O)C6CC6)c(F)c5)nn34)ccc2n1 [Example 7] | 76.4 | 49.6
CNC(=O)c1ccc(-c2ccc3nnc(C(F)(F)c4ccc5nn(C)cc5c4F)n3n2)cn1 [Example 8] |  | 122
Cn1cc(-c2ccc3nnc(C(F)(F)c4cc5cn(C)nc5cc4F)n3n2)cn1 [Example 37] | 50.7 | 13.7
CC(C)NC(=O)c1ccc(-c2ccc3nnc(C(F)(F)c4cc5cn(C)nc5cc4F)n3n2)cc1F [Example 23] | 41.6 | 1.1
CN(C)C(=O)c1ccc(-c2ccc3nnc(C(F)(F)c4cc5cn(C)nc5cc4F)n3n2)cc1F [Example 21] | 180 | 262
CN1CCN(C(=O)c2ccc(-c3ccc4nnc(C(F)(F)c5cc6cn(C)nc6cc5F)n4n3)cc2F)CC1 [Example 27] | 148 | 324
CNS(=O)(=O)c1ccc(-c2ccc3nnc(C(F)(F)c4cc5cn(C)nc5cc4F)n3n2)cc1F [Example 42] | 136 | 406
COCCn1cc(-c2ccc3nnc(C(F)(F)c4ccc5nn(C)cc5c4F)n3n2)cn1 [Example 15] | 380 | 383
Fc1cc2n[nH]cc2cc1C(F)(F)c1nnc2ccc(-c3cnn(C4CC4)c3)nn12 [Example 50] | 1440 | 527
CN(C)C(=O)c1ccc(-c2ccc3nnc(C(F)(F)c4ccc5nn(C)cc5c4F)n3n2)cc1F [Example 2] | 148 | 103
CC(C)n1cc(-c2ccc3nnc(C(F)(F)c4ccc5nn(C)cc5c4F)n3n2)cn1 [Example 14] | 102 | 22.5
Cn1cc2c(F)c(C(F)(F)c3nnc4ccc(-c5ccc(S(N)(=O)=O)c(F)c5)nn34)ccc2n1 [Example 17] | 77.6 | 55.6
CC(C)NC(=O)c1ccc(-c2ccc3nnc(C(F)(F)c4ccc5nn(C)cc5c4F)n3n2)cc1F [Example 4] | 83.9 | 2.6
CCNC(=O)c1ccc(-c2ccc3nnc(C(F)(F)c4ccc5nn(C)cc5c4F)n3n2)cc1F [Example 3] | 69.3 | 71.5

Structure (SMILES) | IC50 [1] [nM] | IC50 [2] [nM]
Cn1cc2c(F)c(C(F)(F)c3nnc4ccc(-c5ccc(C#N)nc5)nn34)ccc2n1 [Example 13] | 182 | 190
Nc1nc2ccc(C(F)(F)c3nnc4ccc(-c5cnn(C6CC6)c5)nn34)cc2[nH]1 [Example 52] | 568 | 
Cn1cc2cc(C(F)(F)c3nnc4ccc(-c5cnn(CC6COCO6)c5)nn34)c(F)cc2n1 (stereo not shown) [Example 41] | 127 | 348
CNC(=O)c1c(F)cc(-c2ccc3nnc(C(F)(F)c4cc5cn(C)nc5cc4F)n3n2)cc1F [Example 28] | 27.7 | 14.2
Cn1cc2cc(C(F)(F)c3nnc4ccc(-c5cnn(C6CCOC6)c5)nn34)c(F)cc2n1 (stereo not shown) [Example 39] | 79.7 | 204
CNC(=O)c1c(F)cc(-c2ccc3nnc(C(F)(F)c4ccc5nn(C)cc5c4F)n3n2)cc1F [Example 6] | 36.5 | 9.5
Cn1cc2cc(C(F)(F)c3nnc4ccc(-c5ccc(C(=O)N6CCOCC6)c(F)c5)nn34)c(F)cc2n1 [Example 26] | 357 | 299
Cn1cc2cc(C(F)(F)c3nnc4ccc(-c5ccc(C(=O)NC6CC6)c(F)c5)nn34)c(F)cc2n1 [Example 24] | 43.4 | 14.9
Cn1cc2cc(C(F)(F)c3nnc4ccc(-c5ccc(C#N)nc5)nn34)c(F)cc2n1 [Example 35] | 65 | 88.1
Cc1cncc(-c2ccc3nnc(C(F)(F)c4ccc5nn(C)cc5c4F)n3n2)c1 [Example 9] |  | 85
CNC(=O)c1cc(-c2ccc3nnc(C(F)(F)c4cc5cn(C)nc5cc4F)n3n2)ccn1 [Example 30] | 51.8 | 45
CNC(=O)c1ccc(-c2ccc3nnc(C(F)(F)c4cc5cn(C)nc5cc4F)n3n2)cc1F [Example 19] | 25.6 | 5.7
Cc1cc(-c2ccc3nnc(C(F)(F)c4cc5cn(C)nc5cc4F)n3n2)ccn1 [Example 36] | 113 | 34
Cn1cc2cc(C(F)(F)c3nnc4ccc(-c5ccc(NC(=O)C6CC6)c(F)c5)nn34)c(F)cc2n1 [Example 29] | 29.5 | 7.9
CC(C)NC(=O)c1ccc(-c2ccc3nnc(C(F)(F)c4cc5cn(C)nc5cc4F)n3n2)c(F)c1 [Example 20] | 137 | 158
CNC(=O)c1ccc(-c2ccc3nnc(C(F)(F)c4cc5cn(C)nc5cc4F)n3n2)cn1 [Example 31] | 81.4 | 60.6
Nc1nc2cc(F)c(Cc3nnc4ccc(-c5cnn(C6CC6)c5)nn34)cc2s1 [Example 49] | 38 | 65
CNC(=O)c1ccc(-c2ccc3nnc(C(F)(F)c4cc5cn(C)nc5cc4F)n3n2)c(F)c1 [Example 18] | 90.8 | 206
Cn1cc2cc(C(F)(F)c3nnc4ccc(-c5cncc(Cl)c5)nn34)c(F)cc2n1 [Example 34] | 53.2 | 57.6
CCNC(=O)c1ccc(-c2ccc3nnc(C(F)(F)c4cc5cn(C)nc5cc4F)n3n2)cc1F [Example 22] | 20.7 | 15.5
CNC(=O)c1ccc(-c2ccc3nnc(C(F)(F)c4ccc5nn(C)cc5c4F)n3n2)cc1F [Example 1, 4-(3-(Difluoro(4-fluoro-2-methyl-2H-indazol-5-yl)methyl)-[1,2,4]triazolo[4,3-b]pyridazin-6-yl)-2-fluoro-N-methylbenzamide] | 48.8 | 3.9
O=C(NCCN1CCOCC1)n1cc2cc(C(F)(F)c3nnc4ccc(-c5cnn(C6CC6)c5)nn34)c(F)cc2n1 [Example 51] | 4130 | 
Cn1cc2cc(C(F)(F)c3nnc4ccc(-c5ccc(C(=O)N6CCCC6)c(F)c5)nn34)c(F)cc2n1 [Example 25] | 125 | 52.7
